The results in this text go back to patent US7196110B2, “N-substituted tricyclic 3-aminopyrazoles as inhibitors for the treatment of cell proliferative disorders” (Janssen Phamaceutica N.V., priority 2002, dated 2007).

For this assay, the target named is T1, PDGF-receptor beta enzyme comprising the tyrosine kinase domain (Homo sapiens, UniProt P09619).
T1 construct: from amino acid 545 to 1106 of GenBank Access NO: AAA36427
Put plainly: Inhibition of PDGF-receptor kinase activity (cell-free, PLC1 peptide, 33P Flashplate). The format is biochemical. The settings on record: PDGF-R kinase activity; for inhibition at 10 µM: compound at 10 uM, read-out: Percent Inhibition @ 10 uM; for IC50: read-out: IC50. In short, it runs like this:
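Recombinant kinase domain (aa 545–1106) phosphorylated a biotinylated PLC1 peptide with 5 μM ATP plus 33P-γ-ATP, in Tris pH 8, MgCl2, Na3VO4 and 1 mM DTT, for 60 min at 30 °C. Retained 33P was counted after washing. IC50 is the concentration halving activity versus no-inhibitor reactions.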

By inhibition is commonly meant how much of the control response was suppressed. The term IC50 denotes the point on the concentration scale where inhibition reaches its midpoint.

T1 sequence (P09619 545-1106): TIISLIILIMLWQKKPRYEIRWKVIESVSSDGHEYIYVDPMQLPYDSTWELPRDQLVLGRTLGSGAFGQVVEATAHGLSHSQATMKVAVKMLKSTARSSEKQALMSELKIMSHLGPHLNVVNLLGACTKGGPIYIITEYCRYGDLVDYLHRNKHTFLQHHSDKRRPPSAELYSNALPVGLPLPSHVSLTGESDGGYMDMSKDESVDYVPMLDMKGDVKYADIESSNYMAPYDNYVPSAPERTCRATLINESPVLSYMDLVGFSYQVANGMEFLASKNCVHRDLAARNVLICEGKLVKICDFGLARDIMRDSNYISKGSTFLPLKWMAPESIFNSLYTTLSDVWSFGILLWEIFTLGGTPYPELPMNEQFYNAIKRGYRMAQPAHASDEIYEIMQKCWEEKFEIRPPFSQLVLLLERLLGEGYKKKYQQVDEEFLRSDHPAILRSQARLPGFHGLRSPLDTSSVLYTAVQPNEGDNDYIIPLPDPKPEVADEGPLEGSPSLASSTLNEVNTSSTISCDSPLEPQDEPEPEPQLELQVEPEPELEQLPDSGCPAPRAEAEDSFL

Regarding `Cc1cccc(CNc2[nH]nc3c2Cc2ccc(C)cc2-3)c1` [Compound 314, (3-Methyl-benzyl)-(7-methyl-2,4-dihydro-indeno[1,2-c]pyrazol-3-yl)-amine], the inhibition at 10 µM turned out to be 76% and the half-inhibitory concentration (IC50) turned out to be 894 nM.

As to `Cc1ccc2c(c1)-c1n[nH]c(NCc3ccc(C)c(Cl)c3)c1C2` [Compound 315, (3-Chloro-4-methyl-benzyl)-(7-methyl-2,4-dihydro-indeno[1,2-c]pyrazol-3-yl)-amine], the inhibition at 10 µM amounted to 17.5% and the half-inhibitory concentration (IC50) was 1920 nM.

For `COc1ccc(OC)c(CNc2[nH]nc3c2Cc2ccc(C)cc2-3)c1` [Compound 316, (2,5-Dimethoxy-benzyl)-(7-methyl-2,4-dihydro-indeno[1,2-c]pyrazol-3-yl)-amine], the inhibition at 10 µM was 66% and the 50% inhibitory concentration (IC50) was 4910 nM.

With `Cc1ccc2c(c1)-c1n[nH]c(NCc3ccc(F)c(F)c3)c1C2` [Compound 317, (3,4-Difluoro-benzyl)-(7-methyl-2,4-dihydro-indeno[1,2-c]pyrazol-3-yl)-amine], the inhibition at 10 µM came to 79% and the IC50 came to 1250 nM.

In the case of `c1ccc(Nc2[nH]nc3c2CCOc2ccccc2-3)cc1` [Compound 318, (4,5-Dihydro-2H-6-oxa-1,2-diaza-benzo[e]azulen-3-yl)-phenyl-amine], the inhibition at 10 µM was 23% and the IC50 was determined as 34400 nM.

Turning to `COc1cc2c(cc1OC)-c1n[nH]c(Nc3cccc(C(=O)N4CCN(C)CC4)c3)c1C2` [Compound 319, [3-(6,7-Dimethoxy-2,4-dihydro-indeno[1,2-c]pyrazol-3-ylamino)-phenyl]-(4-methyl-piperazin-1-yl)-methanone], the inhibition at 10 µM was 80.5% and the half-maximal inhibitory concentration (IC50) worked out at 2200 nM.

In the case of `COc1cc2c(cc1OC)-c1n[nH]c(NCc3ccc(C)c(C)c3)c1C2` [Compound 320, (6,7-Dimethoxy-2,4-dihydro-indeno[1,2-c]pyrazol-3-yl)-(3,4-dimethyl-benzyl)-amine], the inhibition at 10 µM turned out to be 70.5% and the 50% inhibitory concentration (IC50) is 1960 nM.

`COc1cc2c(cc1OC)-c1n[nH]c(NCc3c(F)cccc3F)c1C2` [Compound 321, (2,6-Difluoro-benzyl)-(6,7-dimethoxy-2,4-dihydro-indeno[1,2-c]pyrazol-3-yl)-amine]: the inhibition at 10 µM worked out at 77% and the concentration for half-maximal inhibition (IC50) was found to be 7.45 nM.

For `COc1cc2c(cc1OC)-c1n[nH]c(NCc3cccc(OC)c3OC)c1C2` [Compound 322, (2,3-Dimethoxy-benzyl)-(6,7-dimethoxy-2,4-dihydro-indeno[1,2-c]pyrazol-3-yl)-amine], the inhibition at 10 µM amounted to 22% and the IC50 stood at 54.7 nM.

On to `COc1cc2c(cc1OC)-c1n[nH]c(NCc3cc(F)ccc3F)c1C2` [Compound 323, (2,5-Difluoro-benzyl)-(6,7-dimethoxy-2,4-dihydro-indeno[1,2-c]pyrazol-3-yl)-amine], for which the inhibition at 10 µM came to 60.5% and the IC50 stood at 8710 nM.

Regarding `COc1cc2c(cc1OC)-c1n[nH]c(NCc3ccccc3F)c1C2` [Compound 325, (6,7-Dimethoxy-2,4-dihydro-indeno[1,2-c]pyrazol-3-yl)-(2-fluoro-benzyl)-amine], the inhibition at 10 µM was 61% and the 50% inhibitory concentration (IC50) was found to be 96.7 nM.

Consider `COc1cc2c(cc1OC)-c1n[nH]c(NCc3cccc(Cl)c3Cl)c1C2` [Compound 326, (2,3-Dichloro-benzyl)-(6,7-dimethoxy-2,4-dihydro-indeno[1,2-c]pyrazol-3-yl)-amine], for which the inhibition at 10 µM worked out at 82% and the half-inhibitory concentration (IC50) worked out at 267 nM.

Turning to `COc1cc2c(cc1OC)-c1n[nH]c(NCc3cccc(F)c3)c1C2` [Compound 327, (6,7-Dimethoxy-2,4-dihydro-indeno[1,2-c]pyrazol-3-yl)-(3-fluoro-benzyl)-amine], the inhibition at 10 µM was determined as 52% and the half-maximal inhibitory concentration (IC50) was found to be 10600 nM.

On to `COc1cc2c(cc1OC)-c1n[nH]c(NCc3ccc(F)cc3F)c1C2` [Compound 328, (2,4-Difluoro-benzyl)-(6,7-dimethoxy-2,4-dihydro-indeno[1,2-c]pyrazol-3-yl)-amine], for which the inhibition at 10 µM was 78.5% and the IC50 worked out at 697 nM.

On to `COc1cc2c(cc1OC)-c1n[nH]c(NCc3ccccc3C(F)(F)F)c1C2` [Compound 329, (6,7-Dimethoxy-2,4-dihydro-indeno[1,2-c]pyrazol-3-yl)-(2-trifluoromethyl-benzyl)-amine], for which the inhibition at 10 µM was 58% and the IC50 is 76.2 nM.

Take `COc1cc2c(cc1OC)-c1n[nH]c(NCc3ccc(F)cc3)c1C2` [Compound 331, (6,7-Dimethoxy-2,4-dihydro-indeno[1,2-c]pyrazol-3-yl)-(4-fluoro-benzyl)-amine]: the inhibition at 10 µM was determined as 93% and the 50% inhibitory concentration (IC50) was determined as 189 nM.

As for `COc1ccc(OC)c2c1Cc1c-2n[nH]c1Nc1ccccc1` [Compound 332, (5,8-Dimethoxy-2,4-dihydro-indeno[1,2-c]pyrazol-3-yl)-phenyl-amine], the inhibition at 10 µM amounted to 90% and the 50% inhibitory concentration (IC50) is 372 nM.

In the case of `COc1cc2c(cc1OC)C(C)c1c-2n[nH]c1NCc1cccc(Cl)c1` (centres unmarked) [Compound 333, (3-Chloro-benzyl)-(6,7-dimethoxy-4-methyl-2,4-dihydro-indeno[1,2-c]pyrazol-3-yl)-amine], the inhibition at 10 µM was determined as 73.5% and the IC50 is 2550 nM.

For the compound `Fc1cccc(Nc2n[nH]c3c2Cc2sccc2-3)c1` [Compound 335, (5,7-Dihydro-1-thia-4,5-diaza-cyclopenta[a]pentalen-6-yl)-(3-fluoro-phenyl)-amine], the inhibition at 10 µM came out at 100% and the IC50 came out at 129 nM.

On to `Cc1ccc(Cl)cc1Nc1[nH]nc2c1Cc1ccccc1-2` [Compound 338, (5-Chloro-2-methyl-phenyl)-(2,4-dihydro-indeno[1,2-c]pyrazol-3-yl)-amine], for which the inhibition at 10 µM amounted to 78.5% and the half-maximal inhibitory concentration (IC50) turned out to be 451 nM.

`Fc1ccc(C(F)(F)F)cc1Nc1[nH]nc2c1Cc1ccccc1-2` [Compound 340, (2,4-Dihydro-indeno[1,2-c]pyrazol-3-yl)-(2-fluoro-5-trifluoromethyl-phenyl)-amine]: the inhibition at 10 µM worked out at 92.5% and the half-inhibitory concentration (IC50) was 105 nM.

For the compound `COc1ccc(Cl)cc1Nc1[nH]nc2c1Cc1ccccc1-2` [Compound 342, (5-Chloro-2-methoxy-phenyl)-(2,4-dihydro-indeno[1,2-c]pyrazol-3-yl)-amine], the inhibition at 10 µM was 56.5% and the half-inhibitory concentration (IC50) was determined as 26.7 nM.

Turning to `COc1cccc(Nc2[nH]nc3c2Cc2ccccc2-3)c1` [Compound 343], the inhibition at 10 µM came out at 99.5% and the half-maximal inhibitory concentration (IC50) was 8.08 nM.

Turning to `CCOc1cc2c(cc1OCC)C(C)c1c-2n[nH]c1Nc1cccc(F)c1` (centres unmarked) [Compound 344, (6,7-Diethoxy-4-methyl-2,4-dihydro-indeno[1,2-c]pyrazol-3-yl)-(3-fluoro-phenyl)-amine], the inhibition at 10 µM is 100% and the concentration for half-maximal inhibition (IC50) amounted to 64.7 nM.

On to `CCOc1cc2c(cc1OCC)C(C)c1c-2n[nH]c1Nc1cccnc1` (centres unmarked) [Compound 345, (6,7-Diethoxy-4-methyl-2,4-dihydro-indeno[1,2-c]pyrazol-3-yl)-pyridin-3-yl-amine], for which the inhibition at 10 µM was determined as 88% and the IC50 amounted to 89.3 nM.

Consider `CCOc1cc2c(cc1OCC)C(C)c1c-2n[nH]c1Nc1cccc(Br)c1` (centres unmarked) [Compound 346, (3-Bromo-phenyl)-(6,7-diethoxy-4-methyl-2,4-dihydro-indeno[1,2-c]pyrazol-3-yl)-amine], for which the inhibition at 10 µM was 98% and the half-maximal inhibitory concentration (IC50) stood at 73.9 nM.

Regarding `CCOc1cc2c(cc1OCC)C(C)c1c-2n[nH]c1Nc1ccc(F)c(Cl)c1` (centres unmarked) [Compound 347], the inhibition at 10 µM was determined as 90.5% and the IC50 stood at 545 nM.

As to `CCOc1cc2c(cc1OCC)C(C)c1c-2n[nH]c1Nc1ccc(F)cc1` (centres unmarked) [Compound 349, (6,7-Diethoxy-4-methyl-2,4-dihydro-indeno[1,2-c]pyrazol-3-yl)-(4-fluoro-phenyl)-amine], the inhibition at 10 µM was 78% and the concentration for half-maximal inhibition (IC50) is 80.9 nM.

Turning to `N#Cc1ccc2c(c1)CCc1c-2n[nH]c1Nc1ccccc1` [Compound 350, 3-Phenylamino-4,5-dihydro-2H-benzo[g]indazole-7-carbonitrile], the inhibition at 10 µM was 91% and the 50% inhibitory concentration (IC50) stood at 651 nM.

For `CC(C)Oc1cc2c(cc1OC(C)C)C(C)c1c-2n[nH]c1Nc1cccc(F)c1` (centres unmarked) [Compound 351, (6,7-Diisopropoxy-4-methyl-2,4-dihydro-indeno[1,2-c]pyrazol-3-yl)-(3-fluoro-phenyl)-amine], the inhibition at 10 µM amounted to 93% and the IC50 was 400 nM.

On to `CC(C)Oc1cc2c(cc1OC(C)C)C(C)c1c-2n[nH]c1Nc1cccnc1` (centres unmarked) [Compound 352, (6,7-Diisopropoxy-4-methyl-2,4-dihydro-indeno[1,2-c]pyrazol-3-yl)-pyridin-3-yl-amine], for which the inhibition at 10 µM stood at 86.5% and the IC50 turned out to be 755 nM.

`CC(C)Oc1cc2c(cc1OC(C)C)C(C)c1c-2n[nH]c1Nc1cccc(Br)c1` (centres unmarked) [Compound 353, (3-Bromo-phenyl)-(6,7-diisopropoxy-4-methyl-2,4-dihydro-indeno[1,2-c]pyrazol-3-yl)-amine]: the inhibition at 10 µM was found to be 88% and the half-inhibitory concentration (IC50) was 359 nM.

Turning to `CC(C)Oc1cc2c(cc1OC(C)C)C(C)c1c-2n[nH]c1Nc1ccc(F)c(Cl)c1` (centres unmarked) [Compound 354, (3-Chloro-4-fluoro-phenyl)-(6,7-diisopropoxy-4-methyl-2,4-dihydro-indeno[1,2-c]pyrazol-3-yl)-amine], the inhibition at 10 µM was determined as 62% and the IC50 was 2450 nM.

In the case of `COc1cccc(Nc2[nH]nc3c2C(C)c2cc(OC(C)C)c(OC(C)C)cc2-3)c1` (centres unmarked) [Compound 355, (6,7-Diisopropoxy-4-methyl-2,4-dihydro-indeno[1,2-c]pyrazol-3-yl)-(3-methoxy-phenyl)-amine], the inhibition at 10 µM was determined as 85% and the IC50 worked out at 1030 nM.
